We go through 30 molecules from ChEMBL document CHEMBL1154545, “Optimization of a series of 4,6-bis-anilino-1H-pyrrolo[2,3-d]pyrimidine inhibitors of IGF-1R: elimination of an acid-mediated decomposition pathway” (Bioorg Med Chem Lett, 2009).

Series [1] has as its target T1, Insulin-like growth factor 1 receptor (Homo sapiens, UniProt P08069).
Series [2] in a line: Chemical stability assessed as half life in 0.1 N HCl by LC-MS. The series is classed as physicochemical.
Series [3] concerns the target T1, Insulin-like growth factor 1 receptor. The source holds these as a separate data set.
Description: Inhibition of IGF1R phosphorylation by cellular assay
Series [4] addresses Phosphatidylinositol 4,5-bisphosphate 3-kinase catalytic subunit alpha isoform (Homo sapiens, UniProt P42336). In words: Inhibition of PI3K.
Series [5] concerns the target RAC-alpha serine/threonine-protein kinase (Homo sapiens, UniProt P31749). In words: Inhibition of AKT.
Series [6] in a line: Bioavailability in rat at 9.8 mg/kg, po. The following applies: in vivo. The series is classed as ADME, organism-based.
For series [7], the system named is Rattus norvegicus. In words: Dose normalized AUC in rat at 9.8 mg/kg, po. Format: ADME, organism-based. Also on record: dose 9.8 mg/kg, route oral. To be noted: in vivo.
Series [8] can be described thus: Clearance in rat at 2.2 mg/kg, iv or 9.8 mg/kg, po. Format: ADME, organism-based. To be noted: in vivo.
Series [9] is described as follows: Clearance in rat at 2.1 mg/kg, iv or 9.2 mg/kg, po. The series is classed as ADME, organism-based. The following applies: in vivo.
The subject of series [10] is Rattus norvegicus. The series is described as follows: Dose normalized AUC in rat at 9.2 mg/kg, po. To be noted: in vivo. Also on record: dose 9.2 mg/kg, route oral. Format: ADME, organism-based.
Series [11] is described as follows: Bioavailability in rat at 9.2 mg/kg, po. Format: ADME, organism-based. The following applies: in vivo.
Series [12] concerns the target ALK tyrosine kinase receptor (Homo sapiens, UniProt Q9UM73). In words: Inhibition of ALK.

By IC50 is commonly meant the concentration at which inhibition is half-maximal. A higher IC50 goes with weaker potency in that assay. The term half-life denotes the time in which the quantity being followed falls by half. For `COc1cc(N2CCN(C(C)C)CC2)ccc1Nc1nc(Nc2ccsc2C(N)=O)c2cc[nH]c2n1`, the half-inhibitory concentration (IC50) in series [1] was found to be 1.6 nM; in series [3], 106 nM. Further, the half-life in series [2] is greater than 41.7 days.

Regarding `COc1cc2c(cc1Nc1nc(Nc3cccnc3C(N)=O)c3cc[nH]c3n1)N(C(=O)CN(C)C)CC2`, the IC50 is 0.7 nM in series [1] and 38 nM in series [3]. Moreover, in series [2], the half-life is 0.625 days.

Regarding `COc1cc2c(cc1Nc1nc(Nc3ccoc3C(N)=O)c3cc[nH]c3n1)N(C(=O)CN(C)C)CC2`, the half-life in series [2] was greater than 41.7 days.

As to `COc1cc(N2CCN(CC(C)C)CC2)ccc1Nc1nc(Nc2ccccc2C#N)c2cc[nH]c2n1`, the figures for the IC50 in series [1] and in series [3] were 79 nM and 2740 nM, respectively.

The molecule `COc1cc(N2CCN(C(C)C)CC2)ccc1Nc1nc(Nc2cc(F)cc(F)c2C(N)=O)c2cc[nH]c2n1` registered an IC50 in series [1] of 0.8 nM. Moreover, the half-life in series [2] is 1.62 days.

In the case of `COc1cc(N2CCN(C(C)C)CC2)ccc1Nc1nc(-n2[nH]c(=O)c3ccccc32)c2cc[nH]c2n1`, the half-inhibitory concentration (IC50) in series [1] turned out to be 6 nM; in series [3] it was 546 nM.

On to `COc1cc2c(cc1Nc1nc(Nc3cccnc3C(N)=O)c3cc[nH]c3n1)N(C(=O)CN(C)C)CCC2`, for which the 50% inhibitory concentration (IC50) was 0.5 nM in [1] and 18 nM in [3]. For the same molecule, the half-life in [2] is 1.12 days.

Take `COc1cc2c(cc1Nc1nc(Nc3cccc(F)c3C(N)=O)c3cc[nH]c3n1)N(C(=O)CN(C)C)CC2`: the half-maximal inhibitory concentration (IC50) in series [1] was determined as 1 nM; in [3] it was 54 nM. Moreover, the half-life in series [2] was 0.0833 days.

For `COc1cc(N2CCC(N3CCN(S(C)(=O)=O)CC3)CC2)ccc1Nc1nc(Nc2ccsc2C(N)=O)c2cc[nH]c2n1`, the half-inhibitory concentration (IC50) in [1] came to 5 nM; in [3], 92 nM. For the same molecule, the half-life in series [2] is 17.9 days.

As for `COc1cc(N2CCN(C(C)C)CC2)ccc1Nc1nc(Nc2cc(F)ccc2C(N)=O)c2cc[nH]c2n1`, half-maximal inhibition in [1] (IC50) was put at 0.7 nM. In addition, the half-life in series [2] is 0.167 days.

With `COc1cc2c(cc1Nc1nc(Nc3cccc4c3C(=O)NC4)c3cc[nH]c3n1)N(C(=O)CN(C)C)CC2`, the IC50 amounted to 0.8 nM in [1], 0.8 nM in series [4], 16 nM in series [3] and 2.5 nM in series [5]. Moreover, the half-life in series [2] was greater than 41.7 days.

As for `COc1cc2c(cc1Nc1nc(Nc3ccsc3C(N)=O)c3cc[nH]c3n1)N(C(=O)CN(C)C)CCC2(C)C` [GSK-2163632A], the results for the IC50 in [1] and in series [3] were 0.2 nM and less than 2 nM, respectively. Also, the half-life in [2] is 30 days.

A word on the bioavailability: it is dose-corrected exposure relative to a reference, in per cent. Read a low bioavailability as little systemic uptake. Consider `COc1cc(N2CCN(C(C)C)CC2)ccc1Nc1nc2[nH]ccc2c2nc3cccc(F)c3c(=O)n12`, for which the half-inhibitory concentration (IC50) was found to be 7.9 nM in [1] and 30000 nM in [3]. Further, the bioavailability in [6] turned out to be 81%. Moreover, the AUC in series [7] came out at 18 ng·h/mL/mg/kg. Besides, the clearance in series [8] is 47 mL/min/kg.

Take `COc1cc2c(cc1Nc1nc(N3CCc4ccccc43)c3cc[nH]c3n1)N(C(=O)CN(C)C)CCC2`: the IC50 worked out at 0.5 nM in series [1] and 15 nM in [3]. For the same molecule, the half-life in series [2] was greater than 41.7 days.

`COc1cc(N2CCN(C(C)C)CC2)ccc1Nc1nc(Nc2ccc3ncccc3c2)c2cc[nH]c2n1`: the IC50 in [1] amounted to 13 nM; in series [3], 773 nM.

As for `COc1cc2c(cc1Nc1nc(Nc3ccoc3C(N)=O)c3cc[nH]c3n1)N(C(=O)CN(C)C)CCC2`, the figures for the IC50 in series [1] and in series [3] were 0.3 nM and 9 nM, respectively. Besides, in series [2], the half-life is greater than 41.7 days.

Consider `COc1cc(N2CCN(C(C)C)CC2)ccc1Nc1nc(Nc2cccc3c2NCC3)c2cc[nH]c2n1`, for which the concentration for half-maximal inhibition (IC50) was 400 nM in series [1] and 1690 nM in series [3].

The molecule `COc1cc(N2CCN(C(C)C)CC2)ccc1Nc1nc(Nc2ccc(F)c(F)c2C(N)=O)c2cc[nH]c2n1` had an IC50 in series [1] of 1.3 nM. The half-life in [2] is 0.708 days.

On to `COc1cc(N2CCN(C(C)C)CC2)ccc1Nc1nc(Nc2cccc(F)c2C(N)=O)c2cc[nH]c2n1`, for which the IC50 is 2 nM in series [1] and 117 nM in series [3]. This molecule also returned a clearance in series [9] of 51 mL/min/kg. The half-life in series [2] was 0.708 days. In series [10], this molecule returned an AUC of 156 ng·h/mL/mg/kg. Moreover, the bioavailability in series [11] was determined as 65%.

For the molecule `COc1cc2c(cc1Nc1nc(Nc3ccsc3C(N)=O)c3cc[nH]c3n1)N(C(=O)CN(C)C)CC2`, the half-life in series [2] is 10.4 days. In series [12], this molecule showed a half-inhibitory concentration (IC50) of 0.4 nM.

For `CCCN1CCC(c2ccc(Nc3nc(Nc4ccsc4C(N)=O)c4cc[nH]c4n3)c(OC)c2)CC1`, the IC50 in series [1] was 1.3 nM; in series [3], 52 nM. Moreover, the half-life in [2] is 38.3 days.

As to `COc1cc(N2CCN(C(C)C)CC2)ccc1Nc1nc(Nc2ccccc2-n2cccn2)c2cc[nH]c2n1`, the results for the IC50 in [1] and in series [3] were 25 nM and 654 nM, respectively.

`COc1cc2c(cc1Nc1nc(N3CCc4ccccc43)c3cc[nH]c3n1)N(C(=O)CN(C)C)CC2` [GSK-2186269A]: the figures for the 50% inhibitory concentration (IC50) in [1] and in [3] were 0.8 nM and 160 nM, respectively. The half-life in [2] is greater than 41.7 days.

For the molecule `COc1cc(N2CCN(C(C)C)CC2)ccc1Nc1nc(Nc2cccc3ncccc23)c2cc[nH]c2n1` [GSK-1511931A], the IC50 in series [1] is 250 nM; in series [3], 2530 nM.

As for `CNC(=O)c1cscc1Nc1nc(Nc2cc3c(cc2OC)CCN3C(=O)CN(C)C)nc2[nH]ccc12`, the concentration for half-maximal inhibition (IC50) in [1] stood at 2 nM; in [3], 25 nM. Also, the half-life in [2] was 16.2 days.

For `COc1cc(N2CCN(C(C)C)CC2)ccc1Nc1nc(Nc2cccc(F)c2C(=O)O)c2cc[nH]c2n1` [GSK-1819799A], in series [6], the bioavailability stood at 0%. Further, the AUC in series [7] was found to be 0 ng·h/mL/mg/kg. The same molecule returned a clearance in [8] greater than 200 mL/min/kg.

For `COc1cc(N2CCN(C(C)C)CC2)ccc1Nc1nc(N2CCc3ccccc32)c2cc[nH]c2n1`, the concentration for half-maximal inhibition (IC50) in series [1] was found to be 10 nM; in series [3], 1770 nM.

As to `COc1cc(N2CCN(C(C)C)CC2)ccc1Nc1nc(Nc2ccc(F)cc2C(N)=O)c2cc[nH]c2n1` [GSK-1220512A], half-maximal inhibition in series [1] (IC50) was put at 0.9 nM. Moreover, in series [2], the half-life was 0.0833 days.

As to `COc1cc(N2CCN(C(C)C)CC2)ccc1Nc1nc(Nc2ccccc2OC)c2cc[nH]c2n1`, the results for the IC50 in [1] and in series [3] were 32 nM and 982 nM, respectively.

Turning to `COc1cc2c(cc1Nc1nc(Nc3ccsc3C(N)=O)c3cc[nH]c3n1)N(C(=O)CN(C)C)CCC2` [GSK-2110236A], the values for the concentration for half-maximal inhibition (IC50) in series [1] and in [3] were less than 0.2 nM and 6 nM, respectively. Also, the half-life in series [2] was 34.6 days.
